Measurements taken from publication doi:10.1101/2023.10.24.563163v2, “Targeting cancer with small molecule pan-KRAS degraders” (biorxiv, 2024).

Columns and labels:
[1] = tested on: SW620; test: cells; design: Inhibition of cell proliferation, 5 days; conditions: Homo sapiens, SW-620, 120 h; read-out: IC50 Proliferation SW620
Text: (§1) Next, we set out to test the ability of a single pan-KRAS degrading molecule, compound 4, to selectively suppress oncogenic signaling and proliferation in cancer cell lines driven by diverse KRAS mutants. To this end, we first confirmed degradation of KRAS by compound 4 in KRAS-dependent (GP2d, SW620 and NCI-H358 expressing KRAS^G12D, - G12V or -G12C, respectively) as well as in KRAS independent (A-375, HEK293) cell lines (Fig. 3A, fig. S4A). […] Both inhibition and degradation repressed the established markers of MAPK signaling pERK (fig. S4B-D) and DUSP6 (Fig. 3B, fig. S4E) in KRAS dependent cell lines. […] Neither degradation nor inhibition had appreciable antiproliferative effects in the KRAS independent cell lines A-375 and HEK293 (Fig. 3C, fig. S4F). […] Pan-KRAS degradation impacts MAPK signaling and cancer cell proliferation.

[2] = tested on: GP2d; test: cells; design: Inhibition of cell proliferation, 5 days; conditions: 120 h, read-out: IC50 Proliferation GP2d
Text: as §1

[3] = target: T1, KRAS^G12D (Homo sapiens, UniProt P01116, G12D); design: endogenous; KRAS degradation by capillary electrophoresis immunodetection; conditions: degrader; read-out: DC50 24 h GP5d
T1 sequence (P01116 whole entry G12D): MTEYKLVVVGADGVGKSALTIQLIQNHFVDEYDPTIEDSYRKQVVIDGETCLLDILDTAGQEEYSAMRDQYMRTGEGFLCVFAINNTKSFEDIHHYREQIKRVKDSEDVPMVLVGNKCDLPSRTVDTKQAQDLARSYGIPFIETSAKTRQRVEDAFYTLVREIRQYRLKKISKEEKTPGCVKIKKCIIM
Description: (§2) Protein Detection by Capillary Electrophoresis Cells (50 000) were seeded the day before treatment into 96-well clear-flat bottom plates and incubated overnight (37 °C, humidified tissue culture incubator, 5% CO2). Compounds were added from DMSO stock solution using a digital dispenser and cells are incubated at 37 °C as specified (24 hours for KRAS degradation, 6 hours for determination of pERK levels). At the end of the incubation, medium was removed, cells washed with ice cold PBS, PBS removed and 50 µL lysis buffer (Meso Scale Discovery #R60TX-2) supplemented with 1:100 protease inhibitor solution, 1:100 phosphatase inhibitor I, 1:100 phosphatase inhibitor II (Meso Scale Discovery #R70AA-1), 0.5 µL/mL Benzonase (Novagen #70664-3) and 10 mM dithiothreitol added to each well. Plates with lysis buffer were immediately transferred to -80 °C freezer for at least 2 hours and then thawed on ice. Lysates were transferred to a 96 well V-bottom plate and insoluble debris was pelleted by centrifugation for 20 min. at 4 000 rpm. 40 µL of the supernatant were transferred to a fresh Eppendorf PCR plate. Analysis of protein levels was conducted using the Wes System, ProteinSimple (https://www.bio-techne.com/) as specified by the manufacturer. Briefly, Wes Master Mix (12-230 kDa WES Separation Module, 8 × 25 capillary cartridges, ProteinSimple #SM-W004) and molecular weight markers were prepared as specified in the manufacturer’s recommendations. To detect primary antibodies, anti-rabbit (Protein Simple #DM-001) or anti-mouse (Protein Simple #DM-002) detection modules were used. 7.2 µL lysate + 1.8 µL master mix were combined and heated to 95 °C for 5 min.

[4] = target: T2, HiBiT-KRAS^G12D (Homo sapiens, UniProt P01116, G12D); test: cell-based; design: HiBiT-KRAS degradation, split nanoluciferase lytic detection; conditions: GP5d; read-out: Dmax 24 h GP5d HiBiT [%]
T2 construct: HiBiT-tagged
T2 sequence (P01116 whole entry G12D): as above
Description: This formula was derived from the Growth Inhibition (GI) calculation used in the National Cancer Institute’s NCI-60 high-throughput screen. KRAS Degradation Assays via Detection of Split Nanoluciferase (HiBiT) To assess PROTAC-mediated degradation of HiBiT-tagged KRAS constructs, cells were seeded at 25 000 cells per well in culture medium into white bottom opaque 96-well plates (Perkin Elmer cat no. 5680). Plates were incubated at 37 °C, 5% CO2 in a humidified incubator over night to allow the cells to adhere. Test compounds (10 mM stock in DMSO) were added at logarithmic dose series using the HP Digital Dispenser D300 (Tecan), normalizing for added DMSO. […] Following incubation, 100 µL per well Promega Nano-Glo HiBiT lytic detection reagent mix (Promega Nano-Glo HiBiT Lytic Detection System #N3050), prepared according to the manufacturer´s instructions in the kit, were added. To allow for adequate cell lysis, plates were incubated on an orbital shaker for 15 min. and further incubated 30 min. at room temperature. Upon completion of cell lysis, luminescence was measured using an Envision plate reader using the Ultrasensitive Luminescence Protocol for 96-well plates. Luminescence levels were normalized by the values obtained with DMSO-treated samples and plotted as percent of DMSO control. DC50 values were computed using a three parametric logistic model. Dmax values represent the maximal extent of degradation observed and are stated as percent of control treatments.

[5] = target: T1, KRAS^G12D; test: cell-based; design: endogenous; KRAS degradation by capillary electrophoresis immunodetection; conditions: GP5d; read-out: Dmax 24 h GP5d [%]
Description: as §2

| SMILES | IC50 [1] | IC50 [2] | DC50 [3] | Dmax [4] | Dmax [5] |
| --- | --- | --- | --- | --- | --- |
| Cc1ncsc1-c1ccc(CNC(=O)C2CC(O)CN2C(=O)C(c2cc(OCCCCN3CCCN(c4nccc(-c5noc(C6(C)CCCc7sc(N)c(C#N)c76)n5)n4)C(C)C3)no2)C(C)C)cc1 (stereo not drawn) [compound 5] | 0.993 µM | 1.74 µM | – | – | – |
| Cc1ncsc1-c1ccc(CNC(=O)[C@@H]2C[C@@H](O)CN2C(=O)[C@@H](c2cc(OCCCCN3CCCN(c4nccc(-c5noc([C@@]6(C)CCCc7sc(N)c(C#N)c76)n5)n4)[C@@H](C)C3)no2)C(C)C)cc1 [compound 4] | 0.011 µM | 0.0083 µM | 0.0009 µM | 94% | 100% |
| Cc1ncsc1-c1ccc(CNC(=O)[C@@H]2C[C@@H](O)CN2C(=O)[C@@H](NC(=O)CCCCCN2CCCN(c3nccc(-c4noc([C@@]5(C)CCCc6sc(N)c(C#N)c65)n4)n3)[C@@H](C)C2)C(C)(C)C)cc1 [compound 3] | 0.232 µM | 0.374 µM | 0.0318 µM | 95% | 99% |
| Cc1ncsc1-c1ccc(CNC(=O)[C@@H]2C[C@@H](O)CN2C(=O)[C@@H](NC(=O)COCCCN2CCCN(c3nccc(-c4noc([C@@]5(C)CCCc6sc(N)c(C#N)c65)n4)n3)[C@@H](C)C2)C(C)(C)C)cc1 [compound 2] | – | – | 0.607 µM | 100% | 100% |
| Cc1ncsc1-c1ccc([C@H](CO)NC(=O)[C@@H]2C[C@@H](O)CN2C(=O)[C@H](C(C)C)n2cc(OCCCCN3CCCN(c4nccc(-c5noc([C@@]6(C)CCCc7sc(N)c(C#N)c76)n5)n4)[C@@H](C)C3)nn2)cc1 [compound 7, ACBI3] | – | – | 0.0021 µM | 95% | 99% |
